The term IC50 denotes the concentration at which inhibition is half-maximal. A high value points to lower potency.

Test [1] has as its target T1, PPP2R1A (Homo sapiens, UniProt P30153). Nature of the test: gel-based ABPP, competition with IAyne labeling. The class given is binding.
Test [2] addresses T1, PPP2R1A. The test is described as follows: gel-based ABPP, competition with IAyne labeling of pure protein. The class given is binding.
The target of test [3] is T2, TXNDC17 (Homo sapiens, UniProt Q9BRA2).
T2 sequence (Q9BRA2 2-123): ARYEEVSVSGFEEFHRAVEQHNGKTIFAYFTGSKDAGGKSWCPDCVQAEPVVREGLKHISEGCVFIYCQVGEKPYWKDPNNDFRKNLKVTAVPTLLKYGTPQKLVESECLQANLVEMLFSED
The test is described as follows: in situ competitive isoTOP-ABPP in […]MFP cells, light to heavy ratio […]. The class given is cell-based.

The target of test [4] is CLIC4 (Homo sapiens, UniProt Q9Y696). The test is described as above. The class given is cell-based.
Chain of CLIC4 (Q9Y696 2-253): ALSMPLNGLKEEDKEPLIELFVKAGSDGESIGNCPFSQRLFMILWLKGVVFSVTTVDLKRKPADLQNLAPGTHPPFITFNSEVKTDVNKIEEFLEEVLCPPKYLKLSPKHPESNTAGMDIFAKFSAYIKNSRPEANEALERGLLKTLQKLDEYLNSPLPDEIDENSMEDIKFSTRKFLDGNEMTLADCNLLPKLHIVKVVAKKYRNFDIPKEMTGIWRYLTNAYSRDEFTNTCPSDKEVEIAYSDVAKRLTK
Test [5] addresses T1, PPP2R1A. Nature of the test: gel-based ABPP, competition with IAyne labeling of pure protein. The class given is binding. The source holds these as a separate data set.
In test [6] the target is T3, SCP2 (Homo sapiens, UniProt P22307).
T3 sequence (P22307 1-547): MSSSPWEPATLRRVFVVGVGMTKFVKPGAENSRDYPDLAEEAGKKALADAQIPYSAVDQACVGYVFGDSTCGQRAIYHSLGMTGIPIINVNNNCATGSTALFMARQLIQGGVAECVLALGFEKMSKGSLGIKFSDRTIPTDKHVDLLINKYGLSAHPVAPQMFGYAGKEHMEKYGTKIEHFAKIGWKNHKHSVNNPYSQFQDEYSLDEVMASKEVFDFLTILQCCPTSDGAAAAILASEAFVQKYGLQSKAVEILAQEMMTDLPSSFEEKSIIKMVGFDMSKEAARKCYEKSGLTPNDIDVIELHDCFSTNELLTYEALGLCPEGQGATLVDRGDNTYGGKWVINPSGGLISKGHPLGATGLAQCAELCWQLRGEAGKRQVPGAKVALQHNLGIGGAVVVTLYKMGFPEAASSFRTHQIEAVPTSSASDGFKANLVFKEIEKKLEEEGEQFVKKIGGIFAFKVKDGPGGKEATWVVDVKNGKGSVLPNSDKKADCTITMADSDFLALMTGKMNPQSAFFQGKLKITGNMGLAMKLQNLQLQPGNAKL
Nature of the test: in situ competitive isoTOP-ABPP in […]MFP cells, light to heavy ratio […]. The class given is cell-based.

Test [7] has as its target T4, ACAT1 (Homo sapiens, UniProt P24752).
T4 sequence (P24752 34-427): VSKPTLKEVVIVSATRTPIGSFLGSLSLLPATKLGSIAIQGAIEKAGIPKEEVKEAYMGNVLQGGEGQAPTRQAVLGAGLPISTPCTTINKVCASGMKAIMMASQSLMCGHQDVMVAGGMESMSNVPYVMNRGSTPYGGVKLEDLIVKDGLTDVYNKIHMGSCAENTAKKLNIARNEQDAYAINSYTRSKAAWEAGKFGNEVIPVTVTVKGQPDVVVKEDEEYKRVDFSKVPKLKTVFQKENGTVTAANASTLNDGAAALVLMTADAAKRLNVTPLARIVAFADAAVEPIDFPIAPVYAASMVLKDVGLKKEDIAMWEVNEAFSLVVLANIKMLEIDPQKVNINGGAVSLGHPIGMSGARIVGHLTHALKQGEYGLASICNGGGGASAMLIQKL
The test is described as above. The class given is cell-based.

T1 sequence (P30153 2-589): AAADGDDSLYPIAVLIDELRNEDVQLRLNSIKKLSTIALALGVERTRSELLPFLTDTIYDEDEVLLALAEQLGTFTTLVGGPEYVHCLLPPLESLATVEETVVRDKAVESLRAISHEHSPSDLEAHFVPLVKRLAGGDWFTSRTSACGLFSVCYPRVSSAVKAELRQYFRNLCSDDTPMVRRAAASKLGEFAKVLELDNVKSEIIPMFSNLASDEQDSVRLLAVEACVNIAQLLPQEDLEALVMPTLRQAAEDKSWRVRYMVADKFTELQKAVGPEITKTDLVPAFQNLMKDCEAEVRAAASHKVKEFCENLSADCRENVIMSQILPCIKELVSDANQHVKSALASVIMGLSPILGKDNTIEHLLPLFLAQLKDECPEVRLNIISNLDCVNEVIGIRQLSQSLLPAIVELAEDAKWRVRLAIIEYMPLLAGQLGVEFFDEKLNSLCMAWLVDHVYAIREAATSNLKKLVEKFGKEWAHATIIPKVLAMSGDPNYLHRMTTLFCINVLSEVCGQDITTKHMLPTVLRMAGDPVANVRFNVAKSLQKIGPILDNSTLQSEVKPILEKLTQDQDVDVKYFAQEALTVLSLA

In test [1], `O=C(CCl)Nc1ccc2c(c1)CCCC2` [JNS 1-37] yielded a half-maximal inhibitory concentration (IC50) of 300 µM.
Compound `O=C(CCl)N(Cc1ccccc1)c1ccc2c(c1)OCCO2` [JNS 1-40] had a half-maximal inhibitory concentration (IC50) in test [2] of 0.63 µM.
Take DKM 2-90: the “in situ competitive isoTOP-ABPP in 231MFP cells, light to heavy ratio >5” value in test [3], in test [4], in test [6] and in test [7] was > 5 light to heavy ratio throughout. In test [5], this compound displayed an IC50 of 10 µM.

(Values after paper PMC5693770 (Cell chemical biology, 2017).)
